# Article PMC7756392, “Syntheses of Thailandepsin B Pseudo‐Natural Products: Access to New Highly Potent HDAC Inhibitors via Late‐Stage Modification” (Chemistry (Weinheim an Der Bergstrasse, Germany), 2020)
# Columns and labels:
# hHDAC8 = target: T1, hHDAC8 (Homo sapiens, UniProt Q9BY41); experiment: ZMTFAL trypsin assay, HDAC8; type: biochemical
# T1 sequence (Q9BY41 1-377): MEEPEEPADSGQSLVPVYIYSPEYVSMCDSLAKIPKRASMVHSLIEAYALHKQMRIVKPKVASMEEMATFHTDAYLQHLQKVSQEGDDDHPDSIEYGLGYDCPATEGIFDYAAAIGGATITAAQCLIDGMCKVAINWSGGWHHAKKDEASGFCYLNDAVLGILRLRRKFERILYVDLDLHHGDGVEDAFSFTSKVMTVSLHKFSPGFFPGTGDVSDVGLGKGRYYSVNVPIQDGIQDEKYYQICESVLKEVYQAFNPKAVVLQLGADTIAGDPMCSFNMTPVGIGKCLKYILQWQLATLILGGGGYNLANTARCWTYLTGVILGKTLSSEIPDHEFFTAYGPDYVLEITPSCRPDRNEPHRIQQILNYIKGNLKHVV
# Experimental: [28] Assays for HDAC1/6 were prepared according to: B. Heltweg , J. Trapp , M. Jung , Methods 2005, 36, 332–337; assays for HDAC8 were prepared according to: J. Senger , J. Melesina , M. Marek , C. Romier , I. Oehme , O. Witt , W. Sippl , M. Jung , J. Med. Chem. 2016, 59, 1545–1555. […]
# After […]
# incubation (30 min at 37 °C) fluorescence signal (λex = 390 nm, λem = 460 nm) was measured on a BMG LABTECH POLARstar OPTIMA plate reader (BMG Labtechnologies, Germany).10 hHDAC8: Enzyme was obtained from cooperation partners (Romier).11 Assay was performed as described before. 22.5 µL of enzyme solution in assay buffer (15 mM Tris, pH 7.5, 50 mM KH2PO4, 10 mM KCl, 3 mM MgSO4·7H2O and 0.2 mM TCEP), increasing inhibitor concentrations in DMSO (2.5 μL) and 5 µL of ZMTFAL substrate solution ([…]) were incubated for 90 min at 37 °C in ½ AreaPlate-96 F microplates (PerkinElmer). 30 µL of stop solution (see HDAC1/6) were added. After incubation (30 min at 37 °C) fluorescence signal was […]
# HL60 cells = experiment: MTS cell viability assay, HL60; type: cell-based; conditions: for GI50 (in words): 72 h
# Experimental: (§1) hHDAC1/6: Activity assays were performed in OptiPlateTM-96 F black microplates (PerkinElmer). Commercial available enzymes (human recombinant HDAC1; BPS Bioscience, catalog no. 50051 and human recombinant HDAC6; BPS Bioscience, catalog no. 50006) were used. Total assay volume of 60 µL contains 42 µl of assay buffer (50 mM Tris -HCl, pH 8.0, 137 mM NaCl, 2.7 mM KCl, 1 mM MgCl2, 0.2 mM TCEP and 1 mg/mL bovine serum albumin), 10 µL of enzyme solution in assay buffer, 3 µL of increasing concentrations of inhibitors in DMSO and 5 μL of the fluorogenic substrate ZMAL (Z -(Ac)Lys-AMC) (126 μM). After incubation (90 min, 37 °C) 60 µL of stop solution, containing 5 μL Trichostatin A (TSA) (33 μM) and 10 μL trypsin (6 mg/mL) in trypsin buffer (Tris-HCl 50 mM, pH 8.0, NaCl 100 mM), were added. After incubation (30 min at 37 °C) fluorescence signal (λex = 390 nm, λem = 460 nm) was measured on a BMG LABTECH POLARstar OPTIMA plate reader (BMG Labtechnologies, Germany).10 hHDAC8: Enzyme was obtained from cooperation partners (Romier).11 Assay was performed as described before. […] After incubation (30 min at 37 °C) fluorescence signal was determined as mentioned for HDAC1/6.12 […]
# (§2) Cell proliferation was determined by using the Celltiter 96 AQueous nonradioactive Proliferation Assay (Promega). After 72h of incubation time with inhibitor or DMSO, 20 µL of a mixture (20:1) consisting of MTS (3-(4,5-dimethylthiazol-2-yl)-5-(3-carboxymethoxyphenyl)-2-(4-sulfophenyl-2H-tetrazolium) and PMS (phenazine methosulfate) were added to each well. Absorption was measured after another 2-4 h with a BMG LABTECH POLARstar OPTIMA plate reader (BMG Labtechnologies, Germany).
# (§3) Experiments were performed in triplicates and GI50 values were calculated using the software Origin 2019. […]
# (§4) CO2. […] After another 20 min of incubation, the fluorescence signal (λex = 390 nm, λem = 460 nm) was measured on a BMG LABTECH POLARstar OPTIMA plate reader (BMG Labtechnologies, Germany). […]
# HeLa cells = experiment: MTS cell viability assay, HeLa; type: cell-based; conditions: for GI50 (in words): MTS assay, 72 h
# Experimental: as §1, §2, §3, §4
SMILES,inhibition at 10 µM (hHDAC8) [%],growth inhibition at 5 μM (in words) (HL60 cells; 5 μM),"inhibition at 5 µM (HeLa cells; Homo sapiens, 5 μM, read-out: inhibition of cell growth at 5 μM) [%]",GI50 (in words) (HL60 cells),GI50 (in words) (HeLa cells)
CCCC[C@H]1NC(=O)C[C@@H](/C=C/CCC(=O)NO)OC(=O)C[C@H](O)[C@@H]([C@@H](C)CC)NC(=O)[C@@H](C)NC1=O [compound 8],21,did not inhibit growth,30,–,–
CCCC[C@H]1NC(=O)C[C@@H](/C=C/CCSC(C)=O)OC(=O)C[C@H](O[Si](C)(C)C(C)(C)C)[C@@H]([C@@H](C)CC)NC(=O)[C@@H](C)NC1=O [compound 32],30,–,–,micromolar,micromolar
CCCC[C@H]1NC(=O)C[C@@H](/C=C/CCSC(C)=O)OC(=O)C[C@H](O)[C@@H]([C@@H](C)CC)NC(=O)[C@@H](C)NC1=O [compound 33],22,–,–,nanomolar,nanomolar
